Results taken from patent US20110123483A1, “HMGB1 FOR CANCER TREATMENT” (DEUTSCHES KREBSFORSCHUNGSZENTRUM, priority 2009, published 2011).

How the values were obtained:
U251MG xenograft tumors = assay: Subcutaneous U251MG xenograft tumors in CD1 nude mice, systemic treatment; type: in vivo
Procedure: All animal work was carried out in accordance with the NIH guidelines Guide for the Care and Use of Laboratory Animals. Six-week-old male athymic CD1 nude mice (Charles River, n=8) were injected subcutaneously with 7.5×10^6 U251MG cells in 100 μl PBS in the right flank using a 30-gauge needle. After 3 weeks, treatment of the xenograft tumors was initiated with 10 μg rhHMGB1 in 500 μl PBS or PBS only (control group) by daily intraperitoneal injections at the contralateral side for 6 weeks. Tumor volume was measured by a calliper using the ellipsoid formula (length×width×height×½) as described (Tomayko and Reynolds, 1989). After 6 weeks of treatment the animals were sacrificed and the paraffin embedded tumor sections were subjected to immunofluorescence analysis as outlined below.
Paraffin embedded slices of mouse tissue or xenograft tumors were dewaxed and dehydrated using xylene and ethanol, followed by heat-induced antigen retrieval using 10 mM citrate buffer, pH 6.0, for 3×5 min in a cooker. The sections were incubated with 1:10 COX IV (Alexa Fluor® 488 conjugate) antibody over night at 4° C., washed with PBS and covered with Vectashield® mounting medium (H-1200, Vector Laboratories Inc., 94010 CA, USA) containing DAPI (1.5 μg/ml).

U251 MG cells = assay: ROS measurement by DCF fluorescence and FACS analysis; type: cell-based, human; settings: 40 nM, 24 h (FIG. 3A)
Procedure: For measurement of reactive oxygen species (ROS) and mitochondrial membrane potential (MMP) 1.5×10^6 U251 MG cells were seeded in 6 cm plates, treated with 40 nM rhHMGB1 for 24 h and incubated with the fluorescent DiOC6 (3,3′-dihexyloxacarbocyanine iodide, 40 nmol/ll, Sigma Chemical Co., St. Louis, Mo.) or with the fluorescent H2DCF-DA (dichlorodihydrofluorescein diacetate, 10 μM, Invitrogen) for 1 h at 37° C., respectively. The cells were trypsinized and centrifuged at 2,000 rpm for 5 min at 4° C. The supernatant was discarded and the pellet was washed 2× with sterile Dulbecco's PBS containing 0.1% fetal calf serum on ice and again centrifuged at 2,000 rpm for 5 min at 4° C. The pellet was resuspended in 500 μl sterile Dulbecco's PBS on ice. Oxidation of H2DCF to DCF by ROS and DiOC6 accumulation in mitochondria were measured immediately at FL-1 by flow cytometry using a FACScalibur (Beckton Dickinson, Heidelberg, Germany). Cell cycle was determined by measurement of priopidiumiodide (PI)-uptake of the cells according to standard procedures. Briefly, the cells were harvested and washed twice in sterile Dulbecco's PBS on ice, spun down at 2,000 rpm for 5 min at 4° C. and fixed with 70% ethanol for 30 min at 4° C. Contaminating RNA was eliminated by treatment with 100 μg/ml of RNase A, then 50 μg/ml PI was added and DNA content was measured immediately at FI-2. […]

## rhHMGB1: recombinant human High Mobility Group B1 protein (Sigma Aldrich)
U251MG xenograft tumors; 10 μg daily intraperitoneal, after six weeks (FIG. 1D)
  tumor size versus control group: significantly smaller tumors than the control group
U251MG xenograft tumors; after a 6 week systemic treatment (FIG. 9)
  formation of megamitochondria in xenograft tumor tissue: formation of megamitochondria was also observed
U251 MG cells
  generation of radical oxygen species (ROS): strong generation
